Laboratory results from US20240389599A1, “Antimicrobial Material Comprising a Tetraalkylphosphonium Ionic Liquid and Metal Nanoparticles” (University of Windsor, priority 2023, published 2024).

How the values were obtained:
Format in all cases: cell-based
[1] = tested on: S. aureus; test: resazurin-based MIC/MBC screen of the TAPILs; conditions: resazurin assay
Source text: (§1) The MIC evaluation of the three TAPILs is shown with E. coli (a) and S. aureus (b) as the microorganism under study, using resazurin as an indicator of bacterial viability. The numbers on the right correspond to the TAPILs—i.e. “1” stands for TAPIL-1. The MIC and MBC values (c) are shown for the three TAPILs deployed against E. coli and S. aureus as representative microorganisms.
(§2) The three TAPILs were screened against E. coli and S. aureus according to standard procedures (FIG. 2). The bacteria were selected as they are the representative strains (gram negative and positive, respectively) used for European Union regulations in the evaluation of disinfectants. A standard resazurin-based assay was employed: A blue well indicates non-viable bacteria, while a pink one indicates bacterial viability. The MIC and the MBC values are summarized.

[2] = tested on: E. coli; test: resazurin-based MIC/MBC screen of the TAPILs
Source text: as §1, §2

[3] = MIC/MBC of TAPIL-2 monitored upon ambient storage open to the atmosphere; conditions: 3 weeks ambient storage open to the atmosphere
Source text: The presence of one longer alkyl chain on the central phosphorus is believed to be preferred for anti-microbial activity since symmetrical TAPILs with four identical alkyl substituents around the phosphorus atom are likely to interact less strongly with the cell membrane to induce cell death. The MIC/MBC values of TAPIL-2 were monitored over a period of 3 weeks upon ambient storage open to the atmosphere. No change in its antimicrobial activity was detected.

CCCCCCCCCCCCCC[P+](CCCCCC)(CCCCCC)CCCCCC.O=S(=O)([N-]S(=O)(=O)C(F)(F)F)C(F)(F)F [TAPIL-3]
concentration up to which no anti-bacterial effects are shown (MIC/MBC) [1]: > 2000 µg/mL
concentration up to which no anti-bacterial effects are shown (MIC/MBC) ([2]; resazurin assay): > 2000 µg/mL

CCCCCCCC[P+](CCCCCC)(CCCCCC)CCCCCC.[Cl-] [TAPIL-2]
Minimum Bactericidal Concentration (MBC) [2]: < 65 µg/mL
change in antimicrobial activity (MIC/MBC values) [3]: No change

CCCCCCCCCCCCCC[P+](CCCCCC)(CCCCCC)CCCCCC.[Cl-] [TAPIL-1]
antibacterial properties (in words) [1]: bacteriostatic properties at intermediate concentrations
antibacterial properties (in words) ([2]; resazurin assay): bacteriostatic properties at intermediate concentrations
